Literature values as cited in US8858979B1, “Service induced byproducts for localized drug delivery in orthopaedic implants” (Clemson University, priority 2011, dated 2014).

System: cell proliferation
Conditions: reported data, estimated

In the case of NCCCC(O)(P(=O)([O-])O)P(=O)(O)O.[Na+] [alendronate, alendronate sodium], the “concentration that can inhibit cell proliferation” value is listed as “about 10^−4 M”.
